Assay results as given in patent US10167262B2, “Herbicidal substituted 3-arylpyrazoles” (FMC CORPORATION, priority 2014, dated 2019).

Experiments:
Experiment in all cases: Test C pre-/postemergence greenhouse test, plant response rating 0-100;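 for Plant response rating (0 to 100), Blackgrass: 0 is no effect and 100 is complete control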;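 for Plant response rating (0 to 100), Ragweed: 0 is no effect and 100 is complete control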;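 for Plant response rating, Blackgrass: 0 is no effect and 100 is complete control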;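 for Plant response rating, Ragweed: 0 is no effect and 100 is complete control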
Format in all cases: in vivo
[1] = tested on: Italian ryegrass (Lolium multiflorum)
Procedure, shortened: (§1)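 Greenhouse test. Preemergence: seed in loam:sand, sprayed with formulated chemical (solvent + surfactant). Postemergence: 1–4 leaf plants, 2–18 cm, peat-based potting medium. Hold 13–15 d; score visually, 0 (none) to 100 (complete control); dash = not tested.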

[2] = tested on: blackgrass (Alopecurus myosuroides);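 note: 0 is no effect and 100 is complete control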
Procedure, shortened: as §1

corn (Zea mays) = tested on: corn (Zea mays)
Procedure, shortened: as §1

[3] = tested on: giant foxtail (Setaria faberii)
Procedure, shortened: as §1

[4] = tested on: johnsongrass (Sorghum halepense)
Procedure, shortened: as §1

[5] = tested on: lambsquarters (Chenopodium album)
Procedure, shortened: as §1

[6] = tested on: large (Lg) crabgrass (Digitaria sanguinalis)
Procedure, shortened: as §1

[7] = tested on: pigweed (Amaranthus retroflexus)
Procedure, shortened: as §1

[8] = tested on: ragweed (common ragweed, Ambrosia elatior);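 note: 0 is no effect and 100 is complete control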
Procedure, shortened: as §1

soybean (Glycine max) = tested on: soybean (Glycine max)
Procedure, shortened: as §1

[9] = tested on: velvetleaf (Abutilon theophrasti)
Procedure, shortened: as §1

[10] = tested on: winter wheat (Triticum aestivum)
Procedure, shortened: as §1

[11] = tested on: yellow nutsedge (Cyperus esculentus)
Procedure, shortened: as §1

[12] = Postemergence, 250 g ai/ha, scale 0 to 100
[13] = Postemergence, 500 g ai/ha, scale 0 to 100

SMILES: O=Cn1cc(C(=O)c2ccccc2)c(-c2cc(Cl)cc(Cl)c2)n1 [Compound 28]
- Plant response rating (0 to 100), Ryegrass, Italian ([1]; Postemergence, 62 g ai/ha): 0
- Plant response rating (0 to 100), Ryegrass, Italian ([1]; Postemergence, 125 g ai/ha): 0
- Plant response rating, Ryegrass, Italian [1, 12]: 0
- Plant response rating, Ryegrass, Italian [1, 13]: 0
- Plant response rating, Ryegrass, Italian ([1]; Preemergence, 62 g ai/ha): 0
- Plant response rating, Ryegrass, Italian ([1]; Preemergence, 125 g ai/ha): 0
- Plant response rating, Ryegrass, Italian ([1]; Preemergence, 250 g ai/ha): 0
- Plant response rating, Ryegrass, Italian ([1]; Preemergence, 500 g ai/ha): 0
- Plant response rating (0 to 100), Blackgrass ([2]; Postemergence, 62 g ai/ha): 0
- Plant response rating, Blackgrass ([2]; Postemergence, 125 g ai/ha, scale 0 to 100): 0
- Plant response rating, Blackgrass [2, 12]: 0
- Plant response rating, Blackgrass [2, 13]: 0
- Plant response rating, Blackgrass ([2]; Preemergence, 62 g ai/ha): 0
- Plant response rating, Blackgrass ([2]; Preemergence, 125 g ai/ha): 0
- Plant response rating, Blackgrass ([2]; Preemergence, 250 g ai/ha): 5
- Plant response rating, Blackgrass ([2]; Preemergence, 500 g ai/ha): 5
- Plant response rating (0 to 100), Corn (corn (Zea mays); Postemergence, 62 g ai/ha): 0
- Plant response rating (0 to 100), Corn (corn (Zea mays); Postemergence, 125 g ai/ha): 0
- Plant response rating, Corn (corn (Zea mays); [12]): 0
- Plant response rating, Corn (corn (Zea mays); [13]): 0
- Plant response rating, Corn (corn (Zea mays); Preemergence, 62 g ai/ha): 0
- Plant response rating, Corn (corn (Zea mays); Preemergence, 125 g ai/ha): 0
- Plant response rating, Corn (corn (Zea mays); Preemergence, 250 g ai/ha): 0
- Plant response rating, Corn (corn (Zea mays); Preemergence, 500 g ai/ha): 0
- Plant response rating (0 to 100), Foxtail, Giant ([3]; Postemergence, 62 g ai/ha): 0
- Plant response rating (0 to 100), Foxtail, Giant ([3]; Postemergence, 125 g ai/ha): 5
- Plant response rating, Foxtail, Giant [3, 12]: 0
- Plant response rating, Foxtail, Giant [3, 13]: 0
- Plant response rating, Foxtail, Giant ([3]; Preemergence, 62 g ai/ha): 0
- Plant response rating, Foxtail, Giant ([3]; Preemergence, 125 g ai/ha): 0
- Plant response rating, Foxtail, Giant ([3]; Preemergence, 250 g ai/ha): 10
- Plant response rating, Foxtail, Giant ([3]; Preemergence, 500 g ai/ha): 10
- Plant response rating (0 to 100), Johnsongrass ([4]; Postemergence, 62 g ai/ha): 0
- Plant response rating (0 to 100), Johnsongrass ([4]; Postemergence, 125 g ai/ha): 0
- Plant response rating, Johnsongrass [4, 12]: 0
- Plant response rating, Johnsongrass [4, 13]: 0
- Plant response rating, Johnsongrass ([4]; Preemergence, 62 g ai/ha): 0
- Plant response rating, Johnsongrass ([4]; Preemergence, 125 g ai/ha): 0
- Plant response rating, Johnsongrass ([4]; Preemergence, 250 g ai/ha): 0
- Plant response rating, Johnsongrass ([4]; Preemergence, 500 g ai/ha): 0
- Plant response rating (0 to 100), Lambsquarters ([5]; Postemergence, 62 g ai/ha): 90
- Plant response rating (0 to 100), Lambsquarters ([5]; Postemergence, 125 g ai/ha): 90
- Plant response rating, Lambsquarters [5, 12]: 98
- Plant response rating, Lambsquarters [5, 13]: 98
- Plant response rating, Lambsquarters ([5]; Preemergence, 62 g ai/ha): 100
- Plant response rating, Lambsquarters ([5]; Preemergence, 125 g ai/ha): 100
- Plant response rating, Lambsquarters ([5]; Preemergence, 250 g ai/ha): 100
- Plant response rating, Lambsquarters ([5]; Preemergence, 500 g ai/ha): 100
- Plant response rating (0 to 100), Crabgrass, Large ([6]; Postemergence, 62 g ai/ha): 0
- Plant response rating (0 to 100), Crabgrass, Large ([6]; Postemergence, 125 g ai/ha): 0
- Plant response rating, Crabgrass, Large [6, 12]: 0
- Plant response rating, Crabgrass, Large [6, 13]: 0
- Plant response rating, Crabgrass, Large ([6]; Preemergence, 62 g ai/ha): 0
- Plant response rating, Crabgrass, Large ([6]; Preemergence, 125 g ai/ha): 0
- Plant response rating, Crabgrass, Large ([6]; Preemergence, 250 g ai/ha): 15
- Plant response rating, Crabgrass, Large ([6]; Preemergence, 500 g ai/ha): 15
- Plant response rating (0 to 100), Pigweed ([7]; Postemergence, 62 g ai/ha): 90
- Plant response rating (0 to 100), Pigweed ([7]; Postemergence, 125 g ai/ha): 98
- Plant response rating, Pigweed [7, 12]: 98
- Plant response rating, Pigweed [7, 13]: 100
- Plant response rating, Pigweed ([7]; Preemergence, 62 g ai/ha): 100
- Plant response rating, Pigweed ([7]; Preemergence, 125 g ai/ha): 100
- Plant response rating, Pigweed ([7]; Preemergence, 250 g ai/ha): 100
- Plant response rating, Pigweed ([7]; Preemergence, 500 g ai/ha): 100
- Plant response rating (0 to 100), Ragweed ([8]; Postemergence, 62 g ai/ha): 60
- Plant response rating (0 to 100), Ragweed ([8]; Postemergence, 125 g ai/ha): 45
- Plant response rating, Ragweed [8, 12]: 70
- Plant response rating, Ragweed [8, 13]: 85
- Plant response rating, Ragweed ([8]; Preemergence, 62 g ai/ha): 65
- Plant response rating, Ragweed ([8]; Preemergence, 125 g ai/ha): 75
- Plant response rating, Ragweed ([8]; Preemergence, 250 g ai/ha): 90
- Plant response rating, Ragweed ([8]; Preemergence, 500 g ai/ha): 98
- Plant response rating (0 to 100), Soybean (soybean (Glycine max); Postemergence, 62 g ai/ha): 0
- Plant response rating (0 to 100), Soybean (soybean (Glycine max); Postemergence, 125 g ai/ha): 0
- Plant response rating, Soybean (soybean (Glycine max); [12]): 5
- Plant response rating, Soybean (soybean (Glycine max); [13]): 5
- Plant response rating, Soybean (soybean (Glycine max); Preemergence, 62 g ai/ha): 0
- Plant response rating, Soybean (soybean (Glycine max); Preemergence, 125 g ai/ha): 0
- Plant response rating, Soybean (soybean (Glycine max); Preemergence, 250 g ai/ha): 0
- Plant response rating, Soybean (soybean (Glycine max); Preemergence, 500 g ai/ha): 0
- Plant response rating (0 to 100), Velvetleaf ([9]; Postemergence, 62 g ai/ha): 80
- Plant response rating (0 to 100), Velvetleaf ([9]; Postemergence, 125 g ai/ha): 80
- Plant response rating, Velvetleaf [9, 12]: 85
- Plant response rating, Velvetleaf [9, 13]: 85
- Plant response rating, Velvetleaf ([9]; Preemergence, 62 g ai/ha): 65
- Plant response rating, Velvetleaf ([9]; Preemergence, 125 g ai/ha): 90
- Plant response rating, Velvetleaf ([9]; Preemergence, 250 g ai/ha): 98
- Plant response rating, Velvetleaf ([9]; Preemergence, 500 g ai/ha): 98
- Plant response rating (0 to 100), Wheat ([10]; Postemergence, 62 g ai/ha): 0
- Plant response rating (0 to 100), Wheat ([10]; Postemergence, 125 g ai/ha): 0
- Plant response rating, Wheat [10, 12]: 0
- Plant response rating, Wheat [10, 13]: 0
- Plant response rating, Wheat ([10]; Preemergence, 62 g ai/ha): 0
- Plant response rating, Wheat ([10]; Preemergence, 125 g ai/ha): 0
- Plant response rating, Wheat ([10]; Preemergence, 250 g ai/ha): 0
- Plant response rating, Wheat ([10]; Preemergence, 500 g ai/ha): 0
- Plant response rating (0 to 100), Nutsedge, Yellow ([11]; Postemergence, 62 g ai/ha): 0
- Plant response rating (0 to 100), Nutsedge, Yellow ([11]; Postemergence, 125 g ai/ha): 0
- Plant response rating, Nutsedge, Yellow [11, 12]: 5
- Plant response rating, Nutsedge, Yellow [11, 13]: 0
- Plant response rating, Nutsedge, Yellow ([11]; Preemergence, 62 g ai/ha): 0
- Plant response rating, Nutsedge, Yellow ([11]; Preemergence, 125 g ai/ha): 0
- Plant response rating, Nutsedge, Yellow ([11]; Preemergence, 250 g ai/ha): 0
- Plant response rating, Nutsedge, Yellow ([11]; Preemergence, 500 g ai/ha): 0
